The target in one series is proteinase K (Parengyodontium album, UniProt P06873). Briefly: Resistance to proteinase K digestion. As to conditions: isolated enzyme proteinase k.
The nature of series [1]: Temperature-dependent circular dichroism. The class given is physicochemical. The settings on record: CD; at 95°C.

No end group written: not given here.

proteinase K, sequence (P06873 106-384, species assumed): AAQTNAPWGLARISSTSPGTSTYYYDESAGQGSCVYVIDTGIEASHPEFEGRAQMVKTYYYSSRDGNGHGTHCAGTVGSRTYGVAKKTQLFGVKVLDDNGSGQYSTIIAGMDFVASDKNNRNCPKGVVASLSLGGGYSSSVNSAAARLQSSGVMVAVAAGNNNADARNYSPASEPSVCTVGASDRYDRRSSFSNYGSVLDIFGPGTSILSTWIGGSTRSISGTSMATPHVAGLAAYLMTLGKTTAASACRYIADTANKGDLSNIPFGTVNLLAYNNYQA

The half-life is the time in which the quantity being followed falls by half. The substance Ac-TWNPATGKWT-NH2 [HP7Δ] gave a half-life on proteinase K of 0.6 min.

In turn, KTWNPATGKWTE [HP7] gave a half-life on proteinase K of 2 min.

For “NS1 HBS: HBS-stabilized β-hairpin derived from the Ras-binding NS1 monobody (GGWKGQVYYVG; HBS hydrogen bond surrogate constraint)”, the “decrease in spectral intensity at 215 nm” value in series [1] was determined as 25%.

Values taken from PMC7187762 (ACS chemical biology, 2018).
